Measurements taken from ChEMBL document CHEMBL3751670, “Enkephalin analogues with N-phenyl-N-(piperidin-2-ylmethyl)propionamide derivatives: Synthesis and biological evaluations” (Bioorg Med Chem Lett, 2016).

Test system: Rattus norvegicus
Assay: Antinociceptive activity in non-injured Sprague-Dawley rat model assessed as paw withdrawal latency at 10 ug/5 uL administered intrathecal after 5 mins by radiant heat assay relative to vehicle-treated control
Type: functional

**Q.** With CCC(=O)N(CC1CCCCN1[C@@H](Cc1ccccc1)C(=O)NCC(=O)N[C@H](C)C(=O)N[C@@H](Cc1c(C)cc(O)cc1C)C(=O)O)c1ccccc1 (stereo partly specified) as the compound, how does the Activity read?
**A.** 63%
